Reference: ChEMBL document CHEMBL4507326, “Data for DCP probe TP-030-2” (2021)

Columns and labels:
[1] = biological target: Vascular endothelial growth factor receptor 1 (Homo sapiens, UniProt P17948); test: FLT1(FLT1LGC5) Takeda global kinase panel
[2] = biological target: Serine/threonine-protein kinase PAK 5 (Homo sapiens, UniProt Q9P286); test: PAK5(PAK7LGF1) Takeda global kinase panel
[3] = biological target: 5-hydroxytryptamine receptor 7 (Homo sapiens) (UniProt P34969); conditions: Compound concentration 10.0 uM
[4] = biological target: Serine/threonine-protein kinase D3 (Homo sapiens, UniProt O94806); test: PKD3(PRD3LGG5) Takeda global kinase panel
[5] = biological target: Microtubule-associated serine/threonine-protein kinase 4 (Homo sapiens, UniProt O15021); test: MAST4(MAS4LGRD) Takeda global kinase panel
[6] = biological target: Serine/threonine-protein kinase pim-2 (Homo sapiens, UniProt Q9P1W9); test: Pim2(PIM2LHY1) Takeda global kinase panel
[7] = biological target: Serine/threonine-protein kinase 4 (Homo sapiens, UniProt Q13043); test: MST1(STK4LGF1) Takeda global kinase panel
[8] = biological target: Dual specificity mitogen-activated protein kinase kinase 1 (Homo sapiens, UniProt Q02750); test: MEK1 [MAP2K1(M2K1LGF1)] Takeda global kinase panel
[9] = biological target: GABA-A receptor; anion channel (Rattus norvegicus) (UniProt O09028+P15431+P18506+P18508+P19969+P20236+P23574+P23576+P28471+P28473+P30191+P62813+P63079+P63138+Q91ZM7+Q9ES14); test: Inhibition of GABAA, Muscimol, Central at 10 µM in the Eurofins-Panlabs radioligand binding assay (Eurofins_assay_226500); format: protein-complex assay; conditions: Compound concentration 10.0 uM
[10] = biological target: Melatonin receptor type 1A (Homo sapiens) (UniProt P48039); test: Inhibition of Melatonin MT1 at 10 µM in the Eurofins-Panlabs radioligand binding assay (Eurofins_assay_251600); set-up: ligand concentration 0.05 nM; conditions: Compound concentration 10.0 uM
Rattus norvegicus [11] = species: Rattus norvegicus; conditions: Compound concentration 10.0 uM
[12] = biological target: Serine/threonine-protein kinase 32C (Homo sapiens, UniProt Q86UX6); test: YANK3(S32CLGI1) Takeda global kinase panel
Chain of Serine/threonine-protein kinase 32C (Q86UX6 whole entry): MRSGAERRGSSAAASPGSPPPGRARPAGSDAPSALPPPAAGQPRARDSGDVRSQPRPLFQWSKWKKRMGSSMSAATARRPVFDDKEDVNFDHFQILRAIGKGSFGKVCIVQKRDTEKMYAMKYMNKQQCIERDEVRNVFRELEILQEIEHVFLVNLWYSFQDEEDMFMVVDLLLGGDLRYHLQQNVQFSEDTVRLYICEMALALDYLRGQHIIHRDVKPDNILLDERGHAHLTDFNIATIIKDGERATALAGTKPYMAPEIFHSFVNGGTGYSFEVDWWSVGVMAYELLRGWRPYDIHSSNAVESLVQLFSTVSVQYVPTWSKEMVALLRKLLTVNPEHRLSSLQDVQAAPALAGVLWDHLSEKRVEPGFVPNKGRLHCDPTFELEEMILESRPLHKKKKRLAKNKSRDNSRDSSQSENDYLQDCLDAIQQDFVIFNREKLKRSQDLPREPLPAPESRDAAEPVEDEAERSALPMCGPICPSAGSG

[13] = biological target: Ribosomal protein S6 kinase alpha-2 (Homo sapiens, UniProt Q15349); test: RSK3(R6A1CGE1) Takeda global kinase panel
[14] = biological target: Cyclin-dependent kinase 7 (Homo sapiens, UniProt P50613); test: CDK7(CDK7CGS1) Takeda global kinase panel
[15] = biological target: Receptor-type tyrosine-protein kinase FLT3 (Homo sapiens, UniProt P36888); test: FLT3(FLT3MGE1) Takeda global kinase panel
[16] = biological target: Mitogen-activated protein kinase kinase kinase kinase 5 (Homo sapiens, UniProt Q9Y4K4); test: KHS1(M4K5LGY1) Takeda global kinase panel
[17] = biological target: RAC-beta serine/threonine-protein kinase (Homo sapiens, UniProt P31751); test: Akt2 [PKBbeta(AKT2CGY1)] Takeda global kinase panel
Chain of RAC-beta serine/threonine-protein kinase (P31751 whole entry): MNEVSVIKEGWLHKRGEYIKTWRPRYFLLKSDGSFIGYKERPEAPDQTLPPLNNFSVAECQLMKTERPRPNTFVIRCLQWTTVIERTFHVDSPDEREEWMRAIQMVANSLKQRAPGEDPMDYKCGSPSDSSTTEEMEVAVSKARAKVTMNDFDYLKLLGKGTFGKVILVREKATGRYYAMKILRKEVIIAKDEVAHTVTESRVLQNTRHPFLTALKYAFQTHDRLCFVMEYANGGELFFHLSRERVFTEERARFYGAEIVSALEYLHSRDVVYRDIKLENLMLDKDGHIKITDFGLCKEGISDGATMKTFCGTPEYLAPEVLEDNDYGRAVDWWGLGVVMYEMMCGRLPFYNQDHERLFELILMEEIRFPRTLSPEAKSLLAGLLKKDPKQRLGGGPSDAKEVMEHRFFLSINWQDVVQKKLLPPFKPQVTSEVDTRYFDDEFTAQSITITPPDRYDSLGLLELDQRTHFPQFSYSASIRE

[18] = biological target: 5-hydroxytryptamine receptor 2B (Homo sapiens) (UniProt P41595); conditions: Compound concentration 10.0 uM
Chain of 5-hydroxytryptamine receptor 2B (Homo sapiens) (P41595 whole entry): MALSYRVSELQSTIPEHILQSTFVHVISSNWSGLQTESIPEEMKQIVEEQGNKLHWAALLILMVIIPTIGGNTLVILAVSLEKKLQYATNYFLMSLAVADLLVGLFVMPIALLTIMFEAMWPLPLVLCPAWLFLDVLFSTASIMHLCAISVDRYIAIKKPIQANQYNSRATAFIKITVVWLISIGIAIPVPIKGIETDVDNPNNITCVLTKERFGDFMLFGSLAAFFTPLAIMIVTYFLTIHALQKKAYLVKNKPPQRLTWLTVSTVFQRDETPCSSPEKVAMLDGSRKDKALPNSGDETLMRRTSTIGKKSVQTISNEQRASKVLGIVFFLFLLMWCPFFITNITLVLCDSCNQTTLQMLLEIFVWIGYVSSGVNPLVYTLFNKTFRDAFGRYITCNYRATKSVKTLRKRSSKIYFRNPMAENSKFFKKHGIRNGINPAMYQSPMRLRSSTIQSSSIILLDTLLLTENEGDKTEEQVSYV

[19] = biological target: Testis-specific serine/threonine-protein kinase 1 (Homo sapiens, UniProt Q9BXA7); test: TSSK1(TS1BLGP1) Takeda global kinase panel
[20] = biological target: Ribosomal protein S6 kinase alpha-5 (Homo sapiens, UniProt O75582); test: MSK1(R6A5LGY1) Takeda global kinase panel
Chain of Ribosomal protein S6 kinase alpha-5 (O75582 whole entry): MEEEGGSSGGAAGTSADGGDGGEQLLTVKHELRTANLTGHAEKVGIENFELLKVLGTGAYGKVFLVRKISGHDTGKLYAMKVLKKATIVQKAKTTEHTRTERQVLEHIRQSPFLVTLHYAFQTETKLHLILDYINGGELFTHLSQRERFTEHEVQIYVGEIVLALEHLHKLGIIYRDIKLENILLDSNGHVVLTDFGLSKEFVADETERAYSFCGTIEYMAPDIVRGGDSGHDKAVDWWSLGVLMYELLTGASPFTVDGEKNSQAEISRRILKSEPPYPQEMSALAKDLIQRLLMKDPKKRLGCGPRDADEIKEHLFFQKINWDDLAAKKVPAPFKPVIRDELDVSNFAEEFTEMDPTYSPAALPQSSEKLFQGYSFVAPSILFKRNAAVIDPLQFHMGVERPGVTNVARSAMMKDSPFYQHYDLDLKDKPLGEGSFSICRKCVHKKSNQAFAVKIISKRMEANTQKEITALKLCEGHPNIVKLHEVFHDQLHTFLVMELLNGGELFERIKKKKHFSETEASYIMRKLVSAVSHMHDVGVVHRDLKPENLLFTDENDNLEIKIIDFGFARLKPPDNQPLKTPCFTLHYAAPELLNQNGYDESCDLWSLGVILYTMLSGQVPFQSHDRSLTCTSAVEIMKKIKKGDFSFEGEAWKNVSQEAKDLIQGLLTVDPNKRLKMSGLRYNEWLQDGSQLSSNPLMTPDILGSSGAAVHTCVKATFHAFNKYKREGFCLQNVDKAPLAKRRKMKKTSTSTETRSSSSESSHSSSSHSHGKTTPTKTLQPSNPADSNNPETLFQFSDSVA

[21] = biological target: Cyclin-dependent kinase 16 (Homo sapiens, UniProt Q00536); test: PCTAIRE1(CD16SGS1) Takeda global kinase panel
[22] = biological target: D(3) dopamine receptor (Homo sapiens) (UniProt P35462); conditions: Compound concentration 10.0 uM
[23] = biological target: Mitogen-activated protein kinase kinase kinase 11 (Homo sapiens, UniProt Q16584); test: MLK3(M311LGF1) Takeda global kinase panel
[24] = biological target: Mitogen-activated protein kinase kinase kinase 12 (Homo sapiens, UniProt Q12852); test: DLK(M312CGY1) Takeda global kinase panel
[25] = biological target: Bromodomain testis-specific protein (Homo sapiens, UniProt Q58F21); test: BRDT(BRDTLGRC) Takeda global kinase panel
[26] = biological target: Casein kinase I isoform gamma-1 (Homo sapiens, UniProt Q9HCP0); test: CK1gamma1(C1G1LGI1) Takeda global kinase panel
[27] = biological target: Mitogen-activated protein kinase 9 (Homo sapiens, UniProt P45984); test: JNK2(MAP9LGF1) Takeda global kinase panel
Ephrin type-B receptor 1 = Ephrin type-B receptor 1 (Homo sapiens, UniProt P54762); test: EphB1(EPB1LGY1) Takeda global kinase panel
Chain of Ephrin type-B receptor 1 (P54762 whole entry): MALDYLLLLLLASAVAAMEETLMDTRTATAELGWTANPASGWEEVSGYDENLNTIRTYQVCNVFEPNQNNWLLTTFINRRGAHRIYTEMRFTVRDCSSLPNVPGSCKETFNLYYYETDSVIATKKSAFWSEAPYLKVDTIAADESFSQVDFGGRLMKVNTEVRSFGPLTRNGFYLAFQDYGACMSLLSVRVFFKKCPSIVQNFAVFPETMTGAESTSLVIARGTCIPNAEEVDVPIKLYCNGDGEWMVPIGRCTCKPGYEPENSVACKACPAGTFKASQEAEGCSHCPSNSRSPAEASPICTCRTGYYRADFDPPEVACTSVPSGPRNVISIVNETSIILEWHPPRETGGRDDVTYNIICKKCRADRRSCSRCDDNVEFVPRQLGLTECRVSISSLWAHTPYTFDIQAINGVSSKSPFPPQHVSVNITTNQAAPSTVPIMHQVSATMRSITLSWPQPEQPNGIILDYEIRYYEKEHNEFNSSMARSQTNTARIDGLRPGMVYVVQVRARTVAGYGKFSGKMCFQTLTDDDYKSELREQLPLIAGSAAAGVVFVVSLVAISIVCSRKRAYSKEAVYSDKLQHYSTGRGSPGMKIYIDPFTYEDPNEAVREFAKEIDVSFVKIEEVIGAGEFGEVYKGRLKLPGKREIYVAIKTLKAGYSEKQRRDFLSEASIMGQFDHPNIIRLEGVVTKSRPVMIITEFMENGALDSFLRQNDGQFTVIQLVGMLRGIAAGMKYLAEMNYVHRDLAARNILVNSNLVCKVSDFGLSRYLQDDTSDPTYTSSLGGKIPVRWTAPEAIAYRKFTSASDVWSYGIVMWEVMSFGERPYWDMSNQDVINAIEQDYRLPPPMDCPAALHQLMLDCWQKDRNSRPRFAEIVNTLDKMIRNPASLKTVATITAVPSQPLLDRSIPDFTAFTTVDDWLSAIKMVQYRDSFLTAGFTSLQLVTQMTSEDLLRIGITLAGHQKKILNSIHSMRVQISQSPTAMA

[28] = biological target: Serine/threonine-protein kinase PAK 4 (Homo sapiens, UniProt O96013); test: PAK4(PAK4CGY1) Takeda global kinase panel
[29] = biological target: Insulin-like growth factor 1 receptor (Homo sapiens, UniProt P08069); test: IGF1R(IGF1LGF1) Takeda global kinase panel
[30] = biological target: 5-hydroxytryptamine receptor 3A (Homo sapiens) (UniProt P46098); test: Inhibition of Serotonin (5-Hydroxytryptamine) 5-HT3 at 10 µM in the Eurofins-Panlabs radioligand binding assay (Eurofins_assay_271910); set-up: ligand concentration 0.69 nM; conditions: Compound concentration 10.0 uM
Chain of 5-hydroxytryptamine receptor 3A (Homo sapiens) (P46098 whole entry): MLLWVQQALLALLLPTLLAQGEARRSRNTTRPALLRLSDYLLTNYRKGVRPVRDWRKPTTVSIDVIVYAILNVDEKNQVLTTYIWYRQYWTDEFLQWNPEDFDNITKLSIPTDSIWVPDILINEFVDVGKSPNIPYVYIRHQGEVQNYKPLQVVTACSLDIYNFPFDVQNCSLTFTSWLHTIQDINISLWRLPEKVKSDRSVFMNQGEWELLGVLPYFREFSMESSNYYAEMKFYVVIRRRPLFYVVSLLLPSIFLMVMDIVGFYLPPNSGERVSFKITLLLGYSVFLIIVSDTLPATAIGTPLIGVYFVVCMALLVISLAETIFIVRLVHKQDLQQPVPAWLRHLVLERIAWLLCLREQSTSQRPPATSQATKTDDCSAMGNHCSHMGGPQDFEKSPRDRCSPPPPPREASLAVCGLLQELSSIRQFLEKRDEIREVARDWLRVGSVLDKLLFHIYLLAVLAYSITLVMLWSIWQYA

[31] = biological target: Serine/threonine-protein kinase PLK1 (Homo sapiens, UniProt P53350); test: PLK1(PLK1LGY1) Takeda global kinase panel
Rattus norvegicus [32] = species: Rattus norvegicus; conditions: Compound concentration 10.0 uM; remark: listed apart in the source
[33] = biological target: Myosin light chain kinase (Homo sapiens, UniProt Q32MK0); test: caMLCK(MYL3LGF1) Takeda global kinase panel
Chain of Myosin light chain kinase (Q32MK0 whole entry): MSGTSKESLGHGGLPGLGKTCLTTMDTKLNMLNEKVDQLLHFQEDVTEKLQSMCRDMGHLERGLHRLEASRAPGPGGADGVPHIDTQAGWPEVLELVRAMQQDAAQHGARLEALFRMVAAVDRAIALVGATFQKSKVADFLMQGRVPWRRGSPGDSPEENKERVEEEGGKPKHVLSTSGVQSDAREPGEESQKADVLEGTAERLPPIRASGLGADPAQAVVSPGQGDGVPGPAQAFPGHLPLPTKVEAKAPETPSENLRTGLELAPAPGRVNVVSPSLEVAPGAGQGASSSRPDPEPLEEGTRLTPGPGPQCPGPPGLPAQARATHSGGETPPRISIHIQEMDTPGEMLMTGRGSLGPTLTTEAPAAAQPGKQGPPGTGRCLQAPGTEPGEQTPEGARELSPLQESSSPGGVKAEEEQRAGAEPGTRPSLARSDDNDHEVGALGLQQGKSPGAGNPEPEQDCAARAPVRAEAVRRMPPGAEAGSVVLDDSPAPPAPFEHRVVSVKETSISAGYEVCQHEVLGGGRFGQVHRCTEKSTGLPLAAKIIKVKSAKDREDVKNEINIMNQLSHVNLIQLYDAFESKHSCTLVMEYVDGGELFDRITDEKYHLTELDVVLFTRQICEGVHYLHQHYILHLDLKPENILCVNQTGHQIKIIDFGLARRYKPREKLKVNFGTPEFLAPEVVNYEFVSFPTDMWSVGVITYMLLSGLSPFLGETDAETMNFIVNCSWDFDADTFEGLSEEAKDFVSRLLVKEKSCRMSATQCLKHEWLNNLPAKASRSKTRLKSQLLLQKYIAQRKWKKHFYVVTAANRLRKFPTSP

[34] = biological target: Sigma intracellular receptor 2 (Homo sapiens, UniProt Q5BJF2); conditions: Compound concentration 10.0 uM
Ephrin type-A receptor 8 = Ephrin type-A receptor 8 (Homo sapiens, UniProt P29322); test: EphA8(EPA8LGF1) Takeda global kinase panel
[35] = biological target: Protein kinase C zeta type (Homo sapiens, UniProt Q05513); test: PKCzeta(PRKZLGP1) Takeda global kinase panel
[36] = biological target: Alpha-2C adrenergic receptor (Homo sapiens, UniProt P18825); test: GPCRScan assay: inhibition of Alpha2C; set-up: radioligand conc. used [nm] 0.5 – 1.0, parental cells stable MDCK
Chain of Alpha-2C adrenergic receptor (P18825 whole entry): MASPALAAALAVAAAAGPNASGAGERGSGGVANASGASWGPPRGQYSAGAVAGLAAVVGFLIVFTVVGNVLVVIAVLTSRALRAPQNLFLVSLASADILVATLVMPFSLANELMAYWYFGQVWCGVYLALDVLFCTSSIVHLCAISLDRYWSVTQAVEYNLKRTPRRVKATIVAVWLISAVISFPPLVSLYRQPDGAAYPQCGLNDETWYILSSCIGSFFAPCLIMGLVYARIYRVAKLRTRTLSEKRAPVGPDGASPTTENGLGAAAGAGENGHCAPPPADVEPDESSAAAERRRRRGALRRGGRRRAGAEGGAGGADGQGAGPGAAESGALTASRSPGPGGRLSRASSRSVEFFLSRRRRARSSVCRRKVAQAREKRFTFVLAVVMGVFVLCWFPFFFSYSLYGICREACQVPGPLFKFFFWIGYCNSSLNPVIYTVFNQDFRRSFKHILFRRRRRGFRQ

[37] = biological target: Serine/threonine-protein kinase 24 (Homo sapiens, UniProt Q9Y6E0); test: MST3(ST24LGC1) Takeda global kinase panel
Ephrin type-A receptor 4 = Ephrin type-A receptor 4 (Homo sapiens, UniProt P54764); test: EphA4(EPA4LGF1) Takeda global kinase panel
[38] = biological target: cGMP-dependent protein kinase 2 (Homo sapiens, UniProt Q13237); test: PKG2(PRG2LHY1) Takeda global kinase panel
[39] = biological target: Histamine H1 receptor (Homo sapiens) (UniProt P35367); conditions: Compound concentration 10.0 uM
[40] = biological target: Histamine H4 receptor (Homo sapiens) (UniProt Q9H3N8); conditions: Compound concentration 10.0 uM
[41] = biological target: Rho-associated protein kinase 2 (Homo sapiens, UniProt O75116); test: ROCK2(ROC2LGG1) Takeda global kinase panel

CN1C(=O)[C@@H](N2CCc3c(nn(Cc4ccccc4)c3Br)C2=O)COc2ccccc21 [TP-030-2]
IC50 [1]: 1000 nM | IC50 [2]: 1000 nM | inhibition [3]: 5.69% | IC50 [4]: 1000 nM | IC50 [5]: 1000 nM | IC50 [6]: 1000 nM | IC50 [7]: 1000 nM | IC50 [8]: 1000 nM | inhibition [9]: 7% | inhibition [10]: 33% | inhibition (Rattus norvegicus [11]): -6% | IC50 [12]: 1000 nM | IC50 [13]: 1000 nM | IC50 [14]: 1000 nM | IC50 [15]: 1000 nM | IC50 [16]: 1000 nM | IC50 [17]: 1000 nM | inhibition [18]: 38.3% | IC50 [19]: 1000 nM | IC50 [20]: 1000 nM | IC50 [21]: 1000 nM | inhibition [22]: 14% | IC50 [23]: 1000 nM | IC50 [24]: 1000 nM | IC50 [25]: 1000 nM | IC50 [26]: 1000 nM | IC50 [27]: 1000 nM | IC50 (Ephrin type-B receptor 1): 1000 nM | IC50 [28]: 1000 nM | IC50 [29]: 1000 nM | inhibition [30]: 4% | IC50 [31]: 1000 nM | inhibition (Rattus norvegicus [32]): 82.2% | IC50 [33]: 1000 nM | inhibition [34]: 53.9% | IC50 (Ephrin type-A receptor 8): 1000 nM | IC50 [35]: 1000 nM | Ki ([36]; read-out: Ki): 2950 nM | Ki ([36]; read-out: pKi (converted)): 2820 nM | IC50 [37]: 1000 nM | IC50 (Ephrin type-A receptor 4): 1000 nM | IC50 [38]: 1000 nM | inhibition [39]: 9% | inhibition [40]: 14.7% | IC50 [41]: 1000 nM
